From patent US20160296438A1, “PROTECTIVE ACTION OF LUTEIN AGAINST BLUE LIGHT ON HUMAN SKIN CELL LINES” (Kemin Industries, Inc., priority 2015, published 2016)
Entries after “also recorded” stand apart in the source; their conditions may differ.

Experiments:
[1] = tested on: human dermal fibroblasts (HDF) cells; assay: Intracellular reactive oxygen species (ROS) assay (DCFH-DA) under blue light; format: cell-based; details: lutein at 50, 100 and 200 ppm, blue LED 476 nm, 9 hours, FIG. 6
Description: (§1) Reactive Oxygen Species (ROS) assay. ROS activity was measured using Oxiselect™ intracellular ROS assay kit (Cell BioLabs, San Diego, Calif., catalogue number STA 342, lot #59342025). The cells were seeded into 96-well microplates at a density of 100,000 cells/mL (200 μL). Both the cell lines were treated with cell permeable fluorogenic probe 2′, 7′-dichlorodihydrofluorescin diacetate (DCFH-DA). Cells were washed with D-PBS for couple of times and treated with lutein at different concentrations and exposed to blue LED lights (476 nm) for 9 hours (Cells that were not treated with lutein will serve as blue light control). Cells treated with pure DMSO serves as a control for DMSO effect in presence and absence of blue light. […] After 5 minutes incubation, 150 μL of this medium was transferred to a black wall 96-well plate and fluorescence was measured. […] Intracellular reactive oxygen species (ROS) activity and the oxidative stress was measured using Oxiselect™ intracellular ROS assay kit which can measure hydroxyl, peroxyl and other free radical in the cells. […] DCFH will be rapidly oxidized to fluorescent […] (DCF-green fluorescence) in presence of reactive oxygen species. The fluorescence intensity is proportional to the ROS levels within the cell cytosol. […]

[2] = tested on: human epidermal keratinocytes (HEK) cells; assay: as above; format: cell-based; details: lutein at 50, 100 and 200 ppm, blue LED 476 nm, 9 hours, FIG. 5
Description: as §1

[3] = Solubility of lutein in cell culture media and DMSO; format: physicochemical
Description: FloraGLO™ Lutein (production number M080033, lot number 1405102477, manufactured date Jun. 04, 2014) was solubilized in sterile dimethyl sulfoxide (DMSO) [ATCC, lot #61908420] with intermittent shaking for at least 6 hours to get a stock of 2 mg/mL solution. From the stock; 2.5, 5 and 10 μl of the lutein solution was added to wells containing 100 μl media to get a final lutein concentration of 50, 100 and 200 ppm in corresponding wells. Hydrogen peroxide (H2O2) [Sigma, lot #WKBS8306V] solution at 1 mM was served as a positive control in all the studies. Pure DMSO at 2.5, 5 and 10 μl was added to few wells to have the DMSO control.
FloraGLO™ Lutein was solubilized in DMSO and applied to cell cultures. […] In our earlier attempts for cell viability assays with various detection mechanisms, this high concentrations of DMSO might be interacting with cell culture membranes and causing a reduction in cell proliferation and decrease in cell viability compared to controls.

[4] = tested on: human dermal fibroblasts (HDF) cells; assay: Blue light shielding study with lutein, cell viability/proliferation by MTS assay; format: cell-based; details: lutein solution in DMSO at 50, 100 and 200 ppm as shield plate on top, blue LED 476 nm, 9 hours, p<0.05, FIG. 3
Description: (§2) Cell culture studies. All the cell culture studies were performed using HEK cells [HEK001 (ATCC® CRL-2404™) lot #61331463] continuous cell lines and Human Skin Fibroblast (HDF) [CCD1093Sk (ATCC® CRL2115™) lot #3296816] cell lines [ATCC, Manassas, Va.].
(§3) The growth medium used for HEK cells was prepared according to ATCC guidelines. Growth media consisting of keratinocyte serum free medium (GIBCO-BRL 17005042, lot #1638561) with 5 ng/mL human recombinant epidermal growth factor (EGF) (ATCC, lot # 1584416) and 2 mM L-glutamine (ATCC, lot #62195752) (without bovine pituitary extract and serum) and supplemented with penicillin (10000 units) and streptomycin (10 mg/mL) solution (Gibco, lot #1469707). The growth medium used for HDF cells consisting of eagle's Minimum Essential Medium (EMEM) (ATCC-302003, lot #62028896) with 10% FBS and supplemented with penicillin (10000 units) and streptomycin (10 mg/mL) solution. Cells were grown in cell culture flasks (75 cm^2) [Fisher Scientific, catalog number 10-126-37] to approximately 80% confluence in 5% CO2 environment incubator (NuAire, MN) maintained at 37° C. Confluent cells were passed into subsequent cultures by trypsinization following neutralization and centrifugation. […]
(§4) MTS assay. […] After incubation the absorbance at 490 nm was recorded using microplate Reader (SpectraMax® Me5, Molecular Devices, LLC. Sunnyvale, Calif.). […]

[5] = tested on: human epidermal keratinocytes (HEK) cells; assay: as above; format: cell-based; details: lutein solution in DMSO at 50, 100 and 200 ppm as shield plate on top, blue LED 476 nm, 9 hours, p<0.05, FIG. 2
Description: as §2, §3, §4

## CC1=C[C@H](O)CC(C)(C)[C@H]1/C=C/C(C)=C/C=C/C(C)=C/C=C/C=C(C)/C=C/C=C(C)/C=C/C1=C(C)C[C@@H](O)CC1(C)C [lutein]
[1]
  fluorescence signal (DCF, generation of ROS) on blue light exposure: low and prevent the generation of reactive oxygen species
[2]
  fluorescence signal (DCF, generation of ROS) on blue light exposure: low and prevent the generation of reactive oxygen species
[3]; DMSO
  solubility in DMSO: limited solubility
[3]; cell culture compatible media
  solubility in cell culture compatible media: does not dissolve
[4]
  cell proliferation (% cell viability) compared to blue light control: significantly improved; also recorded: shielded the blue light effectively
[5]
  cell proliferation (% cell viability) compared to blue light control: significantly improved; also recorded: shielded the blue light effectively
